Measured values from PMC10522709, “Rational design and characterization of cell-selective antimicrobial peptides based on a bioactive peptide from Crocodylus siamensis hemoglobin” (Scientific Reports, 2023).
Ends that are not written are not given here.

Columns and labels:
[1] = test system: human keratinocyte cells (HaCaT); format: cell-based; conditions: 24 h
Description: (§1) Human peripheral blood mononuclear cells (PBMC), African green monkey kidney cells (Vero), human keratinocyte cells (HaCaT) and mouse preadipocytes (3T3-L1) were used to evaluate the cytotoxicity of peptides by the MTT assay. PBMCs were isolated using Ficoll medium (GE Healthcare, Uppsala, Sweden) as described by Jangpromma et al.[28]. The PBMCs were then cultured in RPMI 1640, while Vero, HaCaT and 3T3-L1 cells were cultured in DMEM. All culture mediums were supplemented with 10% heat-inactivated fetal bovine serum (FBS) and 1% antibiotic:antimycotic (Gibco, USA). The cells were cultured at 37 °C with 5% CO2/95% relative humidity. After that, PBMC (2 × 10^6 cells/well), Vero (1 × 10^4 cells/well), HaCaT (1 × 10^4 cells/well) and 3T3-L1 (1 × 10^4 cells/well) were individually seeded into 96-well plate and cultured at 37 °C overnight. Next, two-fold serially diluted peptides (3.13–200 μg/mL) were added to the cell culture. After incubation in 5% (v/v) CO2 incubator for 24 h, the medium culture was removed and MTT solution ([…] final concentration in fresh medium culture) was added to the cells and incubated for 30 min. Thereafter, the medium was removed and DMSO (100 µL) was added to each well to dissolve the formazan crystals. The optical density at 570 nm was determined using a microplate reader (ALLSHENG, Zhejiang, China). The cytotoxicity of IL15.3 against Vero, HaCaT and 3T3-L1 cells in the absence of FBS was also measured by the MTT assay to confirm the peptide is not sequestered by proteins in the serum causing artificially low cytotoxicity against eukaryotic cells.
(§2) Cell viability was determined using the equation: %cellviability=OD570ofsample/OD570ofuntreatedcontrol×100
(§3) GraphPad Prism8 (San Diego, CA, USA) was used to calculate IC50 values using a non-linear regression model.

[2] = test system: human peripheral blood mononuclear cells (PBMC); format: cell-based; conditions: 24 h
Description: as §1, §2, §3

[3] = test system: S. epidermidis (ATCC12228); test: Time-killing kinetics assay; format: cell-based, Staphylococcus epidermidis; conditions: 1 × MIC, 37 °C, colony count
Description: The time-killing kinetics of peptide was determined as described previously by Yaraksa et al.[16] In short, E. coli (ATCC25922) and S. epidermidis (ATCC12228) cells grown overnight were diluted in the Nutrient broth to a concentration of 1 × 10^6 CFU/mL. The diluted bacterial suspension (50 µL) was incubated with the peptide solution (50 µL, final concentration = 1 × MIC or 2 × MIC) at 37 °C. 10 µL of the mixture was taken at regular time intervals (0, 15, 30, 60, 180, 360, 540 and 720 min for 1 × MIC and 0, 30, 60, 180, 360, 720, 1440, 2160 and 2880 min for 2 × MIC), diluted and cultured on nutrient agar plates for 24 h. Bacterial cells were then counted and a graph of the log CFU/mL against incubation time was plotted to evaluate the rate at which peptides kill bacterial cells.

IKHWKKVWKHAKKVL [IL15.3]
IC50 HaCaT [1]: >200 µg/mL | IC50 PBMC [2]: >200 µg/mL | time to inhibit the growth kinetic rate ([3]; 1 × 10^6 CFU/mL): ≤ 180 min | time to completely stop growth [3]: 360 min | increase in antimicrobial activity vs QL17: > 1000 fold
